This assay has as its target FABP4 (Homo sapiens, UniProt P15090). Kind of assay: TdF (Temperature Dependence Fluorescence) assay, thermal shift, FABP4. It counts as binding. An excerpt: TdF (Temperature Dependence Fluorescence) Assay for FABP3 and FABP4
The TdF assay was mainly conducted in the 96-well based CHROMO-4 real time fluorescence plate reader (BioRad). The Sypro Orange (Sigma-Aldrich), environmentally sensitive fluorescence dye, was used to monitor the protein folding-unfolding transition. Protein-ligand binding was gauged by the change (or shift) in the unfolding transition temperature (ΔTm) acquired at protein alone with respect to protein in the presence of ligand of interest.
The compound of interest was first prepared in DMSO stock (typical concentration: 10 mM). […] Final percentage of DMSO resided in the sample was 2%. The sample plate was heated from 30° C. to 90° C. with thermal ramping rate of 1° C./min. The fluorescence signals were acquired with excitation and emission wavelengths centered at 490 and 560 nm respectively. The instrument thermal stability was ±0.2° C.
Theoretical basis for TdF-based ligand binding affinity constant
In brief, the binding constant of the ligand at the Tm is expressed as below:
[formula] where To is the midpoint of unfolding for unliganded protein and Tm is the midpoint of unfolding in presence of ligand. [LTm] is free ligand at Tm. The ΔHu and ΔCpu are the enthalpy of unfolding and heat capacity change of unfolding for the protein respectively.
The nonlinear regression fitting in general readily reaches convergence by properly constraining the initial values for the fitting parameters (e.g. the initial “guess” for the ΔHu was constrained to 120 kcal/mol; initial Yn and mn were set to 1 and zero to best represent the melting curve along the low temperature region; negative slope of −0.5 was initially chosen for mu; initial Tm was also constrained to 50° C.).
[formula] (see Brandts et al and Mayhood et al, shown above) where ΔHL (T) is the van't Hoff enthalpy of ligand binding at temperature T and ΔCpL is the heat capacity upon ligand binding. For simplicity, the ΔCpL and ΔHL (T) were set to zero and −7 kcal/mol respectively. […] TdCD (Temperature-dependent Circular Dichroism) Assay for FABP3/4/5

Structures are written as SMILES.

The Kd is the concentration at which binding is half-saturated.

Sequence of FABP4 (P15090 whole entry, species assumed): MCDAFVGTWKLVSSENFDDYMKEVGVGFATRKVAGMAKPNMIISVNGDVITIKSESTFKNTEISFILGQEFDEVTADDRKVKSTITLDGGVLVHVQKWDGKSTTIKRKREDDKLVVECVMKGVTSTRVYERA

Consider `Cc1ccoc1-c1nc2[nH]c(COc3cccc(Cl)c3C)cc(=O)n2n1` [1-115], for which the Kd is over 500 nM.

Take `O=c1cc(CN2CCC(c3cccc(Cl)c3)C2)[nH]c2nc(-c3ccccc3)nn12` (stereo not drawn) [1-91]: the Kd was over 500 nM.

`CC(C)(CNC(=O)c1c(Cl)cccc1OCc1cc(=O)n2nc(-c3ccccc3)nc2[nH]1)N1CCOCC1` [47-22, 2-chloro-N-(2-methyl-2-morpholinopropyl)-6-((7-oxo-2-phenyl-4,7-dihydro-[1,2,4]triazolo[1,5-a]pyrimidin-5-yl)methoxy)benzamide]: the “FABP4 TdF Kd” value is given as “B (0.5 ≦ B < 0.001 μM)”.

With `Cc1c(Cl)cccc1OCc1cc(=O)n2nc(-c3ccccn3)cc2[nH]1` [8-14], the Kd was over 500 nM.

For the compound `Cc1ccc(Br)c2ccn(Cc3cc(=O)n4nc(-c5ccccc5)nc4[nH]3)c12` [1-38], the Kd was over 500 nM.

`Cc1c(Br)cccc1OCc1cc(=O)n2nc(-c3ccccc3)nc2[nH]1` [1-84]: the “FABP4 TdF Kd” value is listed as “B (0.5 ≦ B < 0.001 μM)”.

`CN(Cc1cc(=O)n2nc(-c3ccccc3)nc2[nH]1)c1cccc(Br)c1` [1-16]: the “FABP4 TdF Kd” value is reported as “B (0.5 ≦ B < 0.001 μM)”.

As to `CC(C)(C)OC(=O)N1CCC(OCc2cc(=O)n3nc(-c4ccccc4)nc3[nH]2)(C(=O)NCC2CC2)CC1` [48-21], the Kd was over 500 nM.

Take `COc1cccc(C2(CNC(=O)c3c(Cl)cccc3OCc3cc(=O)n4nc(-c5ccccc5)nc4[nH]3)CCC2)c1` [47-38, 2-chloro-N-((1-(3-methoxyphenyl)cyclobutyl)methyl)-6-((7-oxo-2-phenyl-4,7-dihydro-[1,2,4]triazolo[1,5-a]pyrimidin-5-yl)methoxy)benzamide]: the Kd was at most 1 nM.

As for `Cc1c(Cl)cccc1NCc1cc(=O)n2ncnc2[nH]1` [4-2], the Kd was over 500 nM.

Take `O=C(Nc1c(Cl)cccc1OCc1cc(=O)n2nc(-c3ccccc3)nc2[nH]1)C1CC1` [49-3]: the “FABP4 TdF Kd” value is recorded as “B (0.5 ≦ B < 0.001 μM)”.

`Cc1c(Cl)cccc1OC(C)c1cc(=O)n2nc(-c3ccccc3)nc2[nH]1` (single isomer, unassigned) [37-6]: the “FABP4 TdF Kd” value was “B (0.5 ≦ B < 0.001 μM)”.

`Cc1c(Cl)cccc1OCc1cc(=O)n2nc(-c3cccs3)nc2[nH]1` [8-13]: the “FABP4 TdF Kd” value is reported as “B (0.5 ≦ B < 0.001 μM)”.

On to `O=c1cc(CN2CCc3c(C4CC4)cccc32)[nH]c2nc(-c3ccccc3)nn12` [29-1], for which the Kd was over 500 nM.

Turning to `O=c1cc(COc2cccc(Cl)c2[N+](=O)[O-])[nH]c2nc(-c3ccccc3)nn12` [1-134], the “FABP4 TdF Kd” value is “B (0.5 ≦ B < 0.001 μM)”.

Consider `CC(NC(=O)c1c(Cl)cccc1OCc1cc(=O)n2nc(-c3ccccc3)nc2[nH]1)C1CCC1` (stereo not drawn) [47-36], for which the “FABP4 TdF Kd” value was “B (0.5 ≦ B < 0.001 μM)”.

For the compound `O=C(NCC1(c2ccccc2Cl)CC1)c1c(Cl)cccc1OCc1cc(=O)n2nc(-c3ccccc3)nc2[nH]1` [47-29, 2-chloro-N-((1-(2-chlorophenyl)cyclopropyl)methyl)-6-((7-oxo-2-phenyl-4,7-dihydro-[1,2,4]triazolo[1,5-a]pyrimidin-5-yl)methoxy)benzamide], the Kd is at most 1 nM.

Regarding `CCc1ccc(OCc2cc(=O)n3nc(C)nc3[nH]2)cc1` [8-3], the Kd is over 500 nM.

`O=C(NCC1(c2ccccc2Cl)CC1)C1(OCc2cc(=O)n3nc(-c4ccccc4)nc3[nH]2)CCCCC1` [48-14]: the “FABP4 TdF Kd” value is “B (0.5 ≦ B < 0.001 μM)”.

Turning to `CCc1ccc(CCc2cc(=O)n3nc(-c4ccccc4)nc3[nH]2)cc1` [14-3], the Kd was over 500 nM.

In the case of `CCc1cccc(C)c1OCc1cc(=O)n2nc(-c3ccccc3)nc2[nH]1` [1-33], the “FABP4 TdF Kd” value is “B (0.5 ≦ B < 0.001 μM)”.

`O=C(NCC1(O)CCCC1)c1c(Cl)cccc1OCc1cc(=O)n2nc(-c3ccccc3)nc2[nH]1` [47-15, 2-chloro-N-((1-hydroxycyclopentyl)methyl)-6-((7-oxo-2-phenyl-4,7-dihydro-[1,2,4]triazolo[1,5-a]pyrimidin-5-yl)methoxy)benzamide]: the “FABP4 TdF Kd” value was “B (0.5 ≦ B < 0.001 μM)”.

In the case of `Cc1cc(C(C)(C)C)ccc1OCc1cc(=O)n2nc(-c3ccccc3)nc2[nH]1` [1-74], the Kd was over 500 nM.

Consider `O=C(O)c1c(Cl)cccc1OCc1cc(=O)n2nc(C(F)(F)F)nc2[nH]1` [53-3], for which the Kd was over 500 nM.

On to `Cc1cc(NC(=O)c2c(Cl)cccc2OCc2cc(=O)n3nc(-c4ccccc4)nc3[nH]2)no1` [47-8, 2-chloro-N-(5-methylisoxazol-3-yl)-6-((7-oxo-2-phenyl-4,7-dihydro-[1,2,4]triazolo[1,5-a]pyrimidin-5-yl)methoxy)benzamide], for which the “FABP4 TdF Kd” value is given as “B (0.5 ≦ B < 0.001 μM)”.

Take `CC1(OCc2cc(=O)n3nc(-c4ccccc4)nc3[nH]2)CCCCC1` [1-150]: the “FABP4 TdF Kd” value is recorded as “B (0.5 ≦ B < 0.001 μM)”.

Regarding `Cc1ccc(OCc2cc(=O)n3nc(C(F)(F)F)nc3[nH]2)cc1C` [5-4], the Kd was over 500 nM.

Turning to `CC1CC(OCc2cc(=O)n3nc(-c4ccccc4)nc3[nH]2)CC(C)(C)C1` (stereo not drawn) [1-99], the “FABP4 TdF Kd” value is “B (0.5 ≦ B < 0.001 μM)”.

For the compound `O=C(NC1(CO)CCCC1)c1c(Cl)cccc1OCc1cc(=O)n2nc(-c3ccccc3)nc2[nH]1` [47-17, 2-chloro-N-(1-(hydroxymethyl)cyclopentyl)-6-((7-oxo-2-phenyl-4,7-dihydro-[1,2,4]triazolo[1,5-a]pyrimidin-5-yl)methoxy)benzamide], the “FABP4 TdF Kd” value is “B (0.5 ≦ B < 0.001 μM)”.

Consider `O=C(NCC1(CO)CC1)c1ccccc1OCc1[nH]c2nc(-c3ccccc3)nn2c(=O)c1Cl` [24-16], for which the “FABP4 TdF Kd” value is “B (0.5 ≦ B < 0.001 μM)”.

On to `O=C(NCC1(CO)CCC1)c1c(Cl)cccc1OCc1cc(=O)n2nc(-c3ccccc3)nc2[nH]1` [47-30, 2-chloro-N-((1-(hydroxymethyl)cyclobutyl)methyl)-6-((7-oxo-2-phenyl-4,7-dihydro-[1,2,4]triazolo[1,5-a]pyrimidin-5-yl)methoxy)benzamide], for which the “FABP4 TdF Kd” value is recorded as “B (0.5 ≦ B < 0.001 μM)”.

For `CCc1ccc(NCc2cc(=O)n3nc(C)nc3[nH]2)cc1` [5-7], the Kd is over 500 nM.

Take `O=C(N1C[C@@H]2C[C@@H]2[C@H]1CO)C1(OCc2cc(=O)n3nc(-c4ccccc4)nc3[nH]2)CCCCC1` [48-7, 5-((1-((1S,2S,5R)-2-(hydroxymethyl)-3-azabicyclo[3.1.0]hexane-3-carbonyl)cyclohexyloxy)methyl)-2-phenyl-[1,2,4]triazolo[1,5-a]pyrimidin-7(4H)-one]: the “FABP4 TdF Kd” value was “B (0.5 ≦ B < 0.001 μM)”.

As to `O=c1cc(COC2CCSCC2)[nH]c2nc(-c3ccccc3)nn12` [1-79], the Kd was over 500 nM.

Turning to `Cc1cc(NC(=O)c2c(Cl)cccc2OCc2cc(=O)n3nc(-c4ccccc4)nc3[nH]2)n(C)n1` [47-7, 2-chloro-N-(1,3-dimethyl-1H-pyrazol-5-yl)-6-((7-oxo-2-phenyl-4,7-dihydro-[1,2,4]triazolo[1,5-a]pyrimidin-5-yl)methoxy)benzamide], the “FABP4 TdF Kd” value is reported as “B (0.5 ≦ B < 0.001 μM)”.

Consider `CC1(C)CCCC(OCc2[nH]c3nc(-c4ccccc4)nn3c(=O)c2Cl)C1` (stereo not drawn) [24-2], for which the “FABP4 TdF Kd” value was “B (0.5 ≦ B < 0.001 μM)”.

Consider `Cn1nccc1NC(=O)C1(OCc2cc(=O)n3nc(-c4ccccc4)nc3[nH]2)CCCCC1` [48-32], for which the “FABP4 TdF Kd” value is recorded as “B (0.5 ≦ B < 0.001 μM)”.

With `O=C(NC1(c2ccccc2)CC1)C1(OCc2cc(=O)n3nc(-c4ccccc4)nc3[nH]2)CCCCC1` [48-51], the “FABP4 TdF Kd” value is recorded as “B (0.5 ≦ B < 0.001 μM)”.

Regarding `O=C(NC1(c2ccccc2F)CC1)C1(OCc2cc(=O)n3nc(-c4ccccc4)nc3[nH]2)CCCCC1` [48-48], the “FABP4 TdF Kd” value is reported as “B (0.5 ≦ B < 0.001 μM)”.

As to `Cc1c(Cl)cccc1OCc1cc(=O)n2nc(-c3cncnc3)nc2[nH]1` [25-6], the Kd was over 500 nM.

As for `Cn1nc(C2CC2)cc1NC(=O)C1(OCc2cc(=O)n3nc(-c4ccccc4)nc3[nH]2)CCCCC1` [48-39], the “FABP4 TdF Kd” value is “B (0.5 ≦ B < 0.001 μM)”.

Turning to `O=C(NCc1ccccc1)C1(OCc2cc(=O)n3nc(-c4ccccc4)nc3[nH]2)CCCCC1` [48-52], the “FABP4 TdF Kd” value is “B (0.5 ≦ B < 0.001 μM)”.

For the compound `CC(C)c1cccc(OCc2cc(=O)n3nc(-c4ccccc4)nc3[nH]2)c1` [1-25], the Kd is over 500 nM.

As for `Cc1c(Cl)cccc1OCc1[nH]c2nc(-c3ccccc3)nn2c(=O)c1F` [36-1], the “FABP4 TdF Kd” value is reported as “B (0.5 ≦ B < 0.001 μM)”.

Regarding `CC(C)(C)OCc1cc(=O)n2nc(-c3ccccc3)nc2[nH]1` [1-40], the Kd is over 500 nM.

With `CCC1(OCc2cc(=O)n3nc(-c4ccccc4)nc3[nH]2)CCCCC1` [1-96], the Kd was over 500 nM.

As for `Cc1ccsc1-c1nc2[nH]c(COc3cccc(Cl)c3C)cc(=O)n2n1` [1-113], the Kd is over 500 nM.

As for `O=c1cc(COc2ccc(Cl)c(F)c2)[nH]c2nc(-c3ccccc3)nn12` [1-94], the “FABP4 TdF Kd” value is given as “B (0.5 ≦ B < 0.001 μM)”.

With `CCc1ccc(OCc2cc(=O)n3nc(C(F)(F)F)nc3[nH]2)cc1` [8-2], the Kd is over 500 nM.

Consider `O=c1cc(CN(c2cccc(Cl)c2)C2CC2)[nH]c2nc(-c3ccccc3)nn12` [17-3], for which the “FABP4 TdF Kd” value is “B (0.5 ≦ B < 0.001 μM)”.

As for `Cc1c(Cl)cccc1N(C)C(=O)c1cc(=O)n2nc(-c3ccccc3)nc2[nH]1` [11-4], the Kd is over 500 nM.
